Source: ChEMBL document CHEMBL1141685, “Hexahydro-pyrrolo- and hexahydro-1H-pyrido[1,2-b]pyridazin-2-ones as potent inhibitors of HCV NS5B polymerase” (Bioorg Med Chem Lett, 2008)

How the values were obtained:
Hepatitis C virus [1] = experiment: Antiviral activity against HCV 1b infected in human Huh7/C24 cells after 72 hrs by replicon assay; format: functional, organism-based, Hepacivirus hominis; settings: genotype 1b, Huh-7, 72 h
[2] = Metabolic stability in human liver microsomes assessed as compound remaining at 1 uM after 60 mins; format: ADME, Microsome; settings: read-out: Stability
[3] = Cytotoxicity against human Huh7/C24 cells after 72 hrs […]; format: cell-based, Huh-7
[4] = Metabolic stability in human liver microsomes at 1 uM
[5] = Metabolic stability in cynomolgus monkey liver microsomes at 1 uM
[6] = Apparent permeability from apical to basolateral side in human Caco-2 cell membrane at 10 uM
Hepatitis C virus [7] = experiment: Inhibition of HCV 1b NS5B polymerase by microbeta scintillation counter; design: species or system Hepatitis C virus subtype 1b
[8] = Metabolic stability in cynomolgus monkey liver microsomes assessed as compound remaining at 1 uM after 60 mins; format: ADME, Macaca fascicularis, Microsome; settings: read-out: Stability
Cynomolgus monkey [9] = experiment: AUC (0 to infinity) in cynomolgus monkey at 1 mg/kg, iv; format: ADME, organism-based, Macaca fascicularis, Plasma; design: time infinity, dose 1 mg/kg, route intravenous; settings: in vivo
Cynomolgus monkey [10] = experiment: Hepatic blood flow in cynomolgus monkey; format: ADME, organism-based, Macaca fascicularis, Liver
[11] = Oral bioavailability in cynomolgus monkey at 1 mg/kg; format: ADME, organism-based, Macaca fascicularis; settings: in vivo
Cynomolgus monkey [12] = experiment: AUC (0 to infinity) in cynomolgus monkey at 1 mg/kg, po; format: ADME, organism-based, Macaca fascicularis, Plasma; design: time infinity, dose 1 mg/kg, route oral; settings: in vivo
[13] = Fabs in cynomolgus monkey; format: ADME, organism-based, Macaca fascicularis; settings: in vivo, read-out: Fabs

Row | Compound | EC50 (Hepatitis C virus [1]) [nM] | remaining at 1 h, 1 µM [2] [%] | CC50 at 72 h [3] [nM] | half-life at 1 µM ([4]; microsomes) [min] | half-life at 1 µM ([5]; microsomes) [min] | Papp A→B at 10 µM [6] [×10⁻⁶ cm/s] | IC50 (Hepatitis C virus [7]) [nM] | remaining at 1 h, 1 µM [8] [%] | half-life at 1 µM ([4]; liver microsomes) [min] | half-life at 1 µM ([5]; liver microsomes) [min] | AUC (Cynomolgus monkey [9]) [ng·h/mL] | QH (Cynomolgus monkey [10]) [mL/min/kg] | bioavailability [11] [%] | AUC (Cynomolgus monkey [12]) [ng·h/mL] | Fa [13] [%]
1 | CC(C)CCN1C(=O)C(C2=NS(=O)(=O)c3cc(NS(C)(=O)=O)ccc3N2)=C(O)C2CCCN21 (configuration not stated) | 160 | 65 | > 1000 | > 60 | 63 | 0.2 | 12 | – | – | – | – | – | – | – | –
2 | CS(=O)(=O)Nc1ccc2c(c1)S(=O)(=O)N=C(C1=C(O)C3CCCCN3N(Cc3ccc(F)cc3)C1=O)N2 (configuration not stated) | 300 | 102 | > 1000 | > 60 | > 60 | 0.1 | 16 | 100 | – | – | – | – | – | – | –
3 | CS(=O)(=O)Nc1ccc2c(c1)S(=O)(=O)N=C(C1=C(O)C3CCCN3N(Cc3ccc(F)cc3)C1=O)N2 (configuration not stated) | 190 | 87 | > 1000 | – | – | 0.2 | < 10 | 94 | > 60 | > 60 | – | – | – | – | –
4 | CN(c1ccc2c(c1)S(=O)(=O)N=C(C1=C(O)C3CCCN3N(CCC(C)(C)C)C1=O)N2)S(C)(=O)=O (configuration not stated) | 3600 | – | > 33000 | – | – | – | 160 | – | > 60 | 17 | – | – | – | – | –
5 | CC(C)(C)CCN1C(=O)C(C2=NS(=O)(=O)c3cc(NS(C)(=O)=O)ccc3N2)=C(O)C2CCCN21 (configuration not stated) | 34 | – | > 1000 | 59 | 7.5 | 0.44 | < 10 | – | – | – | 5180 | 44 | 7 | 344 | 8
6 | CS(=O)(=O)Nc1ccc2c(c1)S(=O)(=O)N=C(c1c(O)c3cccn3n(Cc3ccc(F)cc3)c1=O)N2 | 12 | 86 | > 1000 | – | – | – | < 10 | – | > 60 | > 60 | – | – | – | – | –
7 | CC(C)(C)CCN1C(=O)C(C2=NS(=O)(=O)c3cc(NS(C)(=O)=O)ccc3N2)=C(O)C2(C)CCCN12 (configuration not stated) | 1100 | – | > 33000 | – | – | 0.6 | 180 | – | 4.9 | 10 | – | – | – | – | –
8 | CC(C)(C)CCN1C(=O)C(C2=NS(=O)(=O)c3cc(NS(C)(=O)=O)ccc3N2)=C(O)C2CCCCN21 (configuration not stated) | 110 | – | > 33000 | – | – | 0.31 | 41 | – | 52 | 18 | – | – | – | – | –
